US20070286867A1, “Combination Therapy” (Fusion Antibodies Limited, priority 2003, published 2007)

Tests used:
[1] = tested on: R175H p53 mutant cell line
Description: Plasmids containing the p53 mutations R175H and R248W were kindly provided by Prof. G. Lozano (MD Anderson Cancer Center, Houston). […] Cells were seeded on p90 dishes in Optimem, (Invitrogen) supplemented with 10% FCS, at a density of 1×10^5 cells/dish. Transfection was carried out the following day when the monolayer was approximately 70% confluent. Cells were cotransfected with 1 μg pIRESpuro3 DNA and 20 μg pC53NN p53 mutant DNA using Genejuice Transfection reagent (Novagen, CA, USA) according to the manufacturer's instructions. Stably transfected cells were selected over approximately 14 days in medium containing […] puromycin. […] The DO-1 antibody binds to an N-terminal epitope between amino acid residues 11 and 25.
Cell Viability Assays. Cell viability was assessed by MTT (3-(4,5-dimethylthiazol-2-yl)-2,5-diphenyltetrazolium bromide, Sigma) assay (12). […] Cell viability was determined by reading the absorbance of each well at 570 nm using a 96-well microplate reader (Molecular Devices, Wokingham, England). […]
Statistical Analyses. The nature of the interaction between the chemotherapeutic drugs and CH-11 was determined by calculating the R index (RI), which was initially described by Kern and later modified by Romaneli (13, 14). […]

HCT116p53^+/+ cells = assay: MTT cell viability assay in HCT116 p53 wild-type cells; assay type: cell-based, human; details: range of drug concentrations 24 hours, then CH-11 200 ng/ml for 48 hours
Description: (§3) Cell Viability Assays. Cell viability was assessed by MTT (3-(4,5-dimethylthiazol-2-yl)-2,5-diphenyltetrazolium bromide, Sigma) assay (12). […] MTT (0.5 mg/ml) was then added to each well and the cells incubated at 37° C. for a further 3 hours. The culture medium was removed and formazan crystals reabsorbed in 200 μL DMSO. Cell viability was determined by reading the absorbance of each well at 570 nm using a 96-well microplate reader (Molecular Devices, Wokingham, England). […] Twenty microlitres (20 μL) MTT (5 mg/ml) was then added to each well and the cells incubated at 37° C. for a further 3 hours. The culture medium was removed and formazan crystals reabsorbed in 200 μL DMSO. Cell viability was determined by reading the absorbance of each well at 570 nm using an ELISA plate reader (Molecular Devices).
(§4) Statistical Analyses. The nature of the interaction between the chemotherapeutic drugs and CH-11 was determined by calculating the R index (RI), which was initially described by Kern and later modified by Romaneli (13, 14). […] Synergism is then defined as an RI of greater than unity. […] To further assess the statistical significance of the interactions, the inventors designed a univariate ANOVA analysis using the SPSS software package. This was an additive model based on the null hypothesis that there was no interaction between the drugs.

Fas [2] = assay: Western blot of Fas expression in RKO cells; assay type: cell-based; details: 48 hours post-treatment; MTA data not shown
Description: (§1) Western Blotting. Western blots were performed as previously described (6). The Fas/CD95, Bc1-2 and BID (Santa Cruz Biotechnology, Santa Cruz, Calif.), caspase 8 (Oncogene Research Products, Darmstadt, Germany), p53 (Santa Cruz Biotechnology), and PARP (Pharmingen, BD Biosciences, Oxford, England) mouse monoclonal antibodies were used in conjunction with a horseradish peroxidase (HRP)-conjugated sheep anti-mouse secondary antibody (Amersham, Little Chalfont, Buckinghamshire, England). FasL rabbit polyclonal antibody (Santa Cruz Biotechnology) was used in conjunction with an HRP-conjugated donkey anti-rabbit secondary antibody (Amersham). TS sheep monoclonal primary antibody (Rockland, Gilbertsville, Pa.) was used in conjunction with an HRP-conjugated donkey anti-sheep secondary antibody (Serotech, Oxford, England). Equal loading was assessed using a β-tubulin mouse monoclonal primary antibody (Sigma).

Fas [3] = assay: Western blot of Fas expression in H630 cells; assay type: cell-based; details: range of concentrations, 48 hours
Description: as §1

HCT116p53^−/− cells = assay: MTT cell viability assay in HCT116 p53 null cells; assay type: cell-based, human; details: range of drug concentrations 24 hours, then CH-11 200 ng/ml for 48 hours
Description: as §3, §4

Fas [4] = assay: Western blot of Fas expression in HCT116 p53 wild-type cells; assay type: cell-based, human
Description: as §1

Fas/CD95 receptor = assay: Flow cytometry of Fas/CD95 cell surface expression, HCT116 p53 wild-type; assay type: cell-based, human; details: 24 hours
Description: (§2) Where flow cytometric analysis was employed in Examples 1 to 5, the following protocol was used. Cells were seeded at 1×10^5 per well of a 6-well tissue culture plate. […] DNA content of harvested cells was evaluated after propidium iodide staining of cells using the EPICS XL Flow Cytometer (Coulter, Miami, Fla.). Where flow cytometric analysis was employed in Examples 6 to 12, the following protocol was used. Cells were seeded at 1×10^5 per well of a 6-well tissue culture plate. […] DNA content of harvested cells was evaluated after propidium iodide staining of cells using the EPICS XL Flow Cytometer (Coulter). A FITC-conjugated monoclonal anti-human Fas antibody (DAKO) was used to determine cell surface expression of the receptor. Cells were collected and washed twice in PBS before incubating in the antibody (1/20 dilution) at 4° C. for 30 mins. A non-reactive FITC-conjugated mouse IgG1 antibody was used as a negative control for each sample. Following incubation the cells were washed twice with PBS containing 2% bovine serum albumin and fixed in 0.3 mL 4% paraformaldehyde. Samples were then analysed on the EPICS XL Flow Cytometer (Coulter).

Fas [5] = assay: Western blot of Fas expression in MCF-7 cells; assay type: cell-based
Description: as §1

FasL = assay: Western blot of FasL expression in MCF-7 cells; assay type: cell-based; details: IC60 doses, 72 hours
Description: as §1

Fas [6] = assay: Western blot of Fas expression in M7TS90-E6 cells; assay type: cell-based; details: 10 μM 5-FU, 100 nM RTX or 1 μM MTA
Description: as §1

M7TS90-E6 cells = assay: Flow cytometry sub-G1/G0 apoptotic fraction, M7TS90-E6; assay type: cell-based; details: 96 hours after drug treatment; RTX 100 nM, MTA 1 μM, 5-FU 10 μM
Description: as §2

MCF-7 cells [7] = assay: MTT cell viability assay in MCF-7 cells; assay type: cell-based
Description: as §3, §4

Fas/CD95 mRNA = assay: Real-time PCR of Fas/CD95 mRNA in HCT116 p53 null cells; assay type: cell-based, human; details: IC60 72hrs doses, 24 and 48 hours
Description: Real-time PCR was performed using a DNA Engine Opticon 2 (MJ Research Incorporated). TheDyNAmo SYBR Green qPCR kit (Finnzymes) was used as the fluoresent dye specific for double-stranded DNA. PCR conditions consisted of an initial denaturation step of 95° C. for 10 minutes, followed by 39 cycles of 94° C. for 10 secs, 55° C. for 20 secs and 72° C. for 20 secs, with a final extension of 72° C. for 10 minutes. A melting curve was included at the end of each run to check the specificity of the amplified product. Experiments were performed in triplicate to ensure reproducibility of the technique. On completion of the run the PCR products were run put on a 2% ethidium bromide agarose gel to confirm that their size matched that of the expected amplicon. Primer sequences were as follows: Fas (Forward) […], Fas (Reverse) […], 18S (Forward) […], 18S (Reverse) […].

Fas mRNA = assay: Northern blot of Fas mRNA in MCF-7 cells; assay type: cell-based; details: 48 hours, 5 μM 5-FU
Description: Northern blot analysis. Northern blots were performed as described previously using a cDNA probe complementary to the Fas coding region (7). Equal loading was assessed using a P-tubulin cDNA probe.

MCF-7 cells [8] = assay: Flow cytometry of propidium iodide stained cells, sub-G1/G0 apoptotic fraction, MCF-7; assay type: cell-based; details: 5 μM 5-FU alone 96 hours, or 72 hours followed by 250 ng/ml CH-11 24 hours
Description: as §2

procaspase 8, BID, PARP = assay: Western blot of procaspase 8, BID and PARP in MCF-7 cells; assay type: cell-based; details: 5 μM 5-FU or 25 nM RTX 72 hours; CH-11 250 ng/ml 24 hours
Description: as §1

Fas receptor = assay: Fas/CD95 cell surface expression in p53 mutant H630 cell line (Example 11); assay type: cell-based; details: 48 hours; 5-FU 5 μM, CPT-11 5 μM, Oxaliplatin 1 μM
Description: as §2

Structure (SMILES): O=c1[nH]cc(F)c(=O)[nH]1 [5-FU, 5-fluorouracil]
- synergistic cytotoxicity of combination with CH-11 [1]: synergistic cytotoxicity was demontsrated
- interaction with CH-11 in MTT assay (HCT116p53^+/+ cells): significant synergy
- Fas expression (Fas [2]): dramatic Fas up-regulation
- Fas expression (Fas [3]): not significantly altered
- interaction with CH-11 in MTT assay (HCT116p53^−/− cells): only slight interaction
- induction of Fas/CD95 protein (Fas [4]; 5-FU 5 μM, CPT-11 5 μM, Oxaliplatin 1 μM for 48 hours): significant induction
- up-regulation of Fas expression (Fas [4]; after 48 hours): > 10 fold
- induction of Fas/CD95 receptor cell surface expression (Fas/CD95 receptor): significantly induce expression
- Fas protein up-regulation (Fas [5]; 72 hours, IC60 dose (5 μM 5-FU, 25 nM RTX)): ~12 fold
- Fas expression (Fas [5]; MTA data not shown, CH-11 alone 250 ng/ml, 5-FU alone 5 μM): dramatic up-regulation
- FasL expression (FasL): unaffected
- Fas up-regulation (Fas [6]): did not result in Fas up-regulation
- induction of apoptosis by drug alone (M7TS90-E6 cells): little apoptosis
- cytotoxicity at 5 µM (MCF-7 cells [7]; Homo sapiens, MCF7, read-out: decrease in cell viability compared to control): ~60%
- IC60 dose (MCF-7 cells [7]; MCF-7): 5 µM
- maximum induction of Fas mRNA (Fas/CD95 mRNA): 2 fold
- Fas mRNA expression (Fas mRNA): up-regulated
- induction of apoptosis (sub-G1/G0 fraction) (MCF-7 cells [8]): ~2 fold
- activation of caspase 8 and BID (processing of procaspase 8 and full-length BID), words (procaspase 8, BID, PARP): neither caspase 8, nor its substrate BID were activated
- induction of the Fas receptor (Fas receptor): Neither 5-FU nor Oxaliplatin treatment for 48 hours caused significant upregulation
